Laboratory results: PMC6270065, “Virtual Screening and Structure-Based Discovery of Indole Acylguanidines as Potent β-secretase (BACE1) Inhibitors” (Molecules, 2013)
Read-outs that look alike come from different tables or passages of the source.

Target: T1, BACE1 (Homo sapiens, UniProt P56817)
T1 construct: purchased Invitrogen P2985
Assay: BACE1 fluorescence resonance energy transfer (FRET) based enzymatic inhibition assay
Type: biochemical
Conditions: for Inhibition ratio (100 μM): compound concentration 100 μM, Table 1; for inhibition ratio: ligand concentration of 100 μM; for inhibition at 100 µM: compound concentration 100 µM
Description: 3.3. Fluorescence Resonance Energy Transfer (FRET) Based Enzymatic Assay
The BACE1 fluorescence resonance energy transfer assay kit was purchased from Invitrogen (Carlsbad, CA, USA, cat. P2985). BACE1 activity assays were carried out following the manufacturer’s protocol. The enzyme, substrate, and compounds were diluted in a reaction buffer (50 mM sodium acetate, pH 4.5) to make 3× working solutions. The assay was carried out in a black 384-well microplate with a final volume of 30 μL which contains each 10 μL of 3× substrate, enzyme, and compound stocks, respectively. The final concentration of DMSO is less than 3% (v/v). The reaction mixture was incubated at 37 °C for 90 min with oscillation. Then, 10 μL of a stop solution (2.5 M sodium acetate) was added to stop the reaction. Finally, the fluorescent intensity of the enzymatic product was measured at Ex/Em = 535 nm/585 nm on a BioTek SYNERGY4 reader (BioTek, Winooski, VT, USA). Triplicate was run for each assay. IC50 values were calculated from the concentration–inhibition curves by nonlinear regression analysis. Eight concentrations were tested for each compound to produce the concentration–inhibition curve.

T1 sequence (P56817 46-501): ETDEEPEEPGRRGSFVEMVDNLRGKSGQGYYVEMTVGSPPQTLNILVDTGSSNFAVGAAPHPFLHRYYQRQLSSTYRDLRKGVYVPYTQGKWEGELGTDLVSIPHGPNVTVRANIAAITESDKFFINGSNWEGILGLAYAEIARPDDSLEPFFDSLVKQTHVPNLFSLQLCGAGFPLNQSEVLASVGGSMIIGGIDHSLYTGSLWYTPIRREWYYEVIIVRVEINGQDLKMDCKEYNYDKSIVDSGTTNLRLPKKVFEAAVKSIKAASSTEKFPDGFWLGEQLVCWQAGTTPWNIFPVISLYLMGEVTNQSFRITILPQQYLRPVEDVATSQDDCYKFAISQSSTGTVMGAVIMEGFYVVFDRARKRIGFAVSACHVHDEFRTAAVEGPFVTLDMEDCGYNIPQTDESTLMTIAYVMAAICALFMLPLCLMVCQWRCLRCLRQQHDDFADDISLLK

| Inhibition ratio (100 μM) | inhibition at 100 µM (Table 2) | SMILES | other results |
| --- | --- | --- | --- |
|  | 109% | CC(=O)Nc1c(Cl)cc(CNC(=N)NC(=O)Cn2ccc3cc(Br)ccc32)cc1Cl [Compound 22, N-(N-(4-Acetamido-3,5-dichlorobenzyl)carbamimidoyl)-2-(5-bromo-1H-indol-1-yl)acetamide] | IC50 (Table 2): 106 ± 13 nM |
|  | 103% | COc1ccc2ccn(CC(=O)NC(=N)NCc3cc(Cl)c(NC(C)=O)c(Cl)c3)c2c1 [Compound 27, N-(N-(4-Acetamido-3,5-dichlorobenzyl)carbamimidoyl)-2-(6-methoxy-1H-indol-1-yl)acetamide] | IC50 (Table 2): 224 ± 33 nM |
| 46.8% |  | CCNc1c(Cl)cc(CNC(=N)NC(=O)Cn2ccc3ccccc32)cc1Cl [Compound 20, N-(N-(3,5-Dichloro-4-(ethylamino)benzyl)carbamimidoyl)-2-(1H-indol-1-yl)acetamide] |  |
| 92.2% |  | CC(C)C(=O)Nc1c(Cl)cc(CNC(=N)NC(=O)Cn2ccc3ccccc32)cc1Cl [Compound 21, N-(4-((3-(2-(1H-Indol-1-yl)acetyl)guanidino)methyl)-2,6-dichlorophenyl)isobutyramide] | IC50: 1720 ± 210 nM |
|  | 99.5% | CC(=O)Nc1c(Cl)cc(CNC(=N)NC(=O)Cn2ccc3cc(C#N)ccc32)cc1Cl [Compound 24, N-(N-(4-Acetamido-3,5-dichlorobenzyl)carbamimidoyl)-2-(5-cyano-1H-indol-1-yl)acetamide] | IC50 (Table 2): 57 ± 4 nM |
|  | 100% | CC(=O)Nc1c(Cl)cc(CNC(=N)NC(=O)Cn2ccc3ccc(Br)cc32)cc1Cl [Compound 23, N-(N-(4-Acetamido-3,5-dichlorobenzyl)carbamimidoyl)-2-(6-bromo-1H-indol-1-yl)acetamide] | IC50 (Table 2): 79 ± 8 nM |
| 100% | 100% | CC(=O)Nc1c(Cl)cc(CNC(=N)NC(=O)Cn2ccc3ccccc32)cc1Cl [Compound 19, N-(N-(4-Acetamido-3,5-dichlorobenzyl)carbamimidoyl)-2-(1H-indol-1-yl)acetamide] | IC50: 1010 ± 91 nM |

Continued, compound first:

| SMILES | Inhibition ratio (100 μM) | inhibition at 100 µM (Table 2) | other results |
| --- | --- | --- | --- |
| COc1cccc(CNC(=N)NC(=O)Cn2ccc3ccccc32)c1 [Compound 14, 2-(1H-Indol-1-yl)-N-(N-(3-methoxybenzyl)carbamimidoyl)acetamide] | 58.75% |  |  |
| N=C(N)NCCn1ccc2ccccc21 [Compound 4, 1-(2-(1H-indol-1-yl)ethyl)guanidine] |  |  | IC50: > 100000 nM; inhibition ratio: about 42% |
| N=C(N)NC(=O)Cn1ccc2ccccc21 [Compound 5, N-Carbamimidoyl-2-(1H-indol-1-yl)acetamide] | 77.00% |  | inhibition ratio: 77% |
| N=C(NCc1cc(F)cc(F)c1)NC(=O)Cn1ccc2ccccc21 [Compound 15, N-(N-(3,5-Difluorobenzyl)carbamimidoyl)-2-(1H-indol-1-yl)acetamide] | 52.38% |  |  |
| CC(=O)Nc1ccc(CNC(=N)NC(=O)Cn2ccc3ccccc32)cc1 [Compound 18, N-(N-(4-Acetamidobenzyl)carbamimidoyl)-2-(1H-indol-1-yl)acetamide] | 35.3% |  |  |
| N=C(NCc1cc(Cl)cc(Cl)c1)NC(=O)Cn1ccc2ccccc21 [Compound 17, N-(N-(3,5-Dichlorobenzyl)carbamimidoyl)-2-(1H-indol-1-yl)acetamide] | 100% |  | IC50: 8750 ± 1070 nM |
| CC(=O)Nc1c(Cl)cc(CNC(N)=NC(=O)Cn2ccc3ccc(CN(C)S(C)(=O)=O)cc32)cc1Cl [Compound 28] |  | 100% | IC50 (Table 2): 840 ± 101 nM |
| N=C(NCc1cccc(OC(F)(F)F)c1)NC(=O)Cn1ccc2ccccc21 [Compound 16, 2-(1H-Indol-1-yl)-N-(N-(3-(trifluoromethoxy)benzyl)carbamimidoyl)acetamide] | 66.51% |  |  |
| N=C(NCc1cccc(I)c1)NC(=O)Cn1ccc2ccccc21 [Compound 13, 2-(1H-Indol-1-yl)-N-(N-(3-iodobenzyl)carbamimidoyl)acetamide] | 85.24% |  |  |
| N=C(NCc1ccccc1)NC(=O)Cn1ccc2ccccc21 [Compound 12] | 40.69% |  |  |
